Laboratory results as given in patent EP4692079A1, “CYP11A1 INHIBITOR AND USE THEREOF” (priority 2023, dated 2024).
Read-outs that look alike come from different tables or passages of the source.

Assays:
[1] = Pharmacokinetic test in mice; format: in vivo; details: mouse, male ICR mice, plasma; for Vd: read-out: Vdss
Method: 4.1. Experimental animals: Male ICR mice, 20-25 g, 6 mice/compound, were purchased from Chengdu Dossy Experimental Animals Co., Ltd.
4.2 Experimental design: on the day of the experiment, the ICR mice were randomly grouped according to their body weights. […] Table 6 Administration information
Before and after administration, 0.06 mL of blood was taken from the orbit under isoflurane anaesthesia and placed in an EDTAK2 centrifuge tube. The tube was centrifuged at 5000 rpm at 4°C for 10 min, and plasma was collected. […] Before analysis and detection, all samples were stored at -80°C, and the samples were quantitatively analysed by LC-MS/MS.

[2] = system: pregnenolone level in NCI-H295R cells; test: cells; format: cell-based; details: Homo sapiens, 72 h; for inhibition at 0.1 µM: read-out: Pregnenolone level in H295R (Elisa) inh.% 100 nM; for inhibition at 1 µM: read-out: Pregnenolone level in H295R (Elisa) inh.% 1000 nM; for IC50: read-out: Pregnenolone level in H295R (Elisa) IC50 nM
Method: 2. The purpose of the experimental study was intended to detect the pregnenolone level in the NCI-H295R cells by adopting the Enzyme linked immunosorbent assay (ELISA), so as to evaluate the inhibitory effects of the compounds on the pregnenolone level in the NCI-H295R cells.
The H295R cells were purchased from ATCC (CRL-2128), the cell complete medium contained DMEM: F12+ 10% FBS +0.00625 mg/ml insulin+0.00625 mg/mL transferrin+6.25 ng/mL selenium+1.25 mg/mL BSA+0.00535 mg/mL linoleic acid, and the cells were cultured in a 37°C, 5% CO2 incubator. The cells in the exponential growth phase were collected, and cultured in a cytokine-free medium (phenol red 1640-free +1% PS+10% css FBS+1.25 mg/mL BSA +0.00625 mg/mL insulin+0.00625 mg/mL transferrin+6.25 ng/mL selenium+0.00535 mg/mL linoleic acid) for three days. The cells in the exponential growth phase were collected on the third day. The cell suspension was adjusted with a cytokine-free medium to a corresponding concentration and plated at 60000 cells/well, with the volume being 90 µL/well. Subsequently, 10 µL of the compounds at different concentrations was added and the plate was incubated in a CO2 incubator for three days. After the incubation was completed, the cell culture supernatant was collected and centrifuged at 2°C-8°C at 800×g for 10 min. The resulting supernatant was collected. Determination was carried out according to the operation instructions for pregnenolone Elisa kit (Antibodies-A73791), and the OD450 signal was read.
2.1 Standard curve plotting. The standard concentration was taken as the abscissa and the OD450 value as the ordinate, the coordinate points of various standards were connected with a smooth line and a curve was fitted according to the four parameter logistic (4-PL) method.
2.2 Sample quantification: The corresponding concentration (CONC) of testosterone/pregnenolone in the sample was calculated using the absorbance value of the sample and the standard curve. According to formula (1), the inhibition rate of the compound at various concentrations was calculated, and S-shaped concentration curves were plotted and the IC50 values (i.e., concentration of the compound at which the inhibition rate was 50%) were calculated using a three parameter non-linear regression model in Graphpad Prim 8.0 software. CONC cpd was the concentration of the treated group, and CONC ctrl was the average concentration value of the solvent control group. Inhibition rate% = 100%−CONCcpd /CONCctrl × 100% [formula] Table 3 Inhibitory effects of compounds on pregnenolone level in NCI-H295R cells

[3] = system: testosterone level in NCI-H295R cells; test: cells; format: cell-based; details: Homo sapiens, NCI-H295R, 72 h; for IC50: read-out: Testosterone level in H295R (Elisa) IC50 nM
Method: The purpose of the experimental study was intended to detect the testosterone level in the NCI-H295R cells by adopting the Enzyme linked immunosorbent assay (ELISA), so as to evaluate the inhibitory effects of the compounds on the testosterone level in the NCI-H295R cells.
The H295R cells were purchased from ATCC, the cell complete medium contained DMEM: F12+ 10% FBS +0.00625 mg/ml insulin +0.00625 mg/ml transferrin+6.25 ng/ml selenium +1.25 mg/ml BSA+0.00535 mg/ml linoleic acid, and the cells were cultured in a 37°C, 5% CO2 incubator. The cells in the exponential growth phase were collected, and cultured in a cytokine-free medium (phenol red 1640-free +1% PS+10% css FBS+1.25 mg/ml BSA +0.00625 mg/ml insulin + 0.00625 mg/ml transferrin+6.25 ng/ml selenium+0.00535 mg/ml linoleic acid) for three days. The cells in the exponential growth phase were collected on the third day. The cell suspension was adjusted with a cytokine-free medium to a corresponding concentration and plated at 60000 cells/well, with the volume being 90 µL/well. Subsequently, 10 µL of the compounds at different concentrations was added and the plate was incubated in a CO2 incubator for three days. After the incubation was completed, according to the operation instructions for testosterone Elisa kit (Beyotime, PT872), 50 µL of the cell culture supernatant was collected from each well and centrifuged at 500 g for 5 min at room temperature and then the resulting supernatant was collected. The samples were added to the corresponding wells at 25 µl/well, and then formulated horseradish peroxidase labelled testosterone was added at 75 µl/well. The mixture was fully mixed for 10 seconds. The reaction wells were sealed with a plate-sealing film (white) and the mixture was incubated at room temperature in the dark for 120 min. The plate was washed three times with a volume of 300 µl per well, and then placed onto thick absorbent paper and dried. Chromogenic reagent TMB solution was added at 100 µl/well. The reaction wells were sealed with a plate-sealing film (white) and the mixture was incubated at room temperature in the dark for 15-20 min. Subsequently, a termination solution was added at 50 µl/well, and after the mixture was fully mixed, the absorbance value OD450 was immediately measured. The absorbance readings were processed using Graphpad Prim 8.0 software and S-shaped concentration curves were plotted and the IC50 values were calculated using a four-parameter non-linear regression model.

[4] = Pharmacokinetic test in rats; format: in vivo; details: rat, male SD rats, plasma; for Vd: read-out: Vdss
Method: 3.1 Experimental animals: Male SD rats (about 220 g, 6-8 weeks old, 6 rats/compound) were purchased from Chengdu Dossy Experimental Animals Co., Ltd.
3.2 Experimental design: On the day of the experiment, the SD rats were randomly grouped by body weight. […] Table 4 Administration information
Before and after the administration, 0.1 ml of blood was taken from the orbit of the animals under isoflurane anaesthesia and placed in an EDTAK2 centrifuge tube. The blood was centrifuged at 5000 rpm and 4°C for 10 min to collect plasma. […] Before analysis and detection, all samples were stored at -80°C. Table 5 Pharmacokinetic parameters of test compounds in plasma of rats

[5] = po, intragastric administration (10 mg/kg)
[6] = intravenous administration (2.5 mg/kg)
[7] = read-out: Testosterone level in H295R (Elisa) inh.% 100 nM
[8] = read-out: Testosterone level in H295R (Elisa) inh.% 1000 nM
[9] = read-out: Testosterone level in H295R (Elisa) inh.% 100 nM, 100 nM compound, NCI-H295R cells, three days incubation
[10] = read-out: Testosterone level in H295R (Elisa) inh.% 1000 nM, 1000 nM compound, NCI-H295R cells, three days incubation

| SMILES | AUC(0-t) [1, 5] | half-life [1, 5] | AUC(0-t) [1, 6] | clearance [1, 6] | half-life [1, 6] | Vd [1, 6] | inhibition at 0.1 µM [2] | inhibition at 1 µM [2] | inhibition at 0.1 µM [3, 7] | inhibition at 1 µM [3, 8] | inhibition at 0.1 µM [3, 9] | inhibition at 1 µM [3, 10] | AUC(0-t) [4, 5] | half-life [4, 5] | also measured |
| --- | --- | --- | --- | --- | --- | --- | --- | --- | --- | --- | --- | --- | --- | --- | --- |
| O=C(N[C@H]1CC[C@H](/C=C/c2coc(CN3Cc4ccc(C(F)(F)F)cc4C3)cc2=O)CC1)[C@@H]1CC1(F)F [Compound 89] | 52500 ng·h/mL | 8.11 h | 8460 ng·h/mL | 4.9 mL/min/kg | 5.1 h | 1.63 L/kg | 41.6% | 64.9% | 75% | 87% | – | – | – | – | – |
| O=C(N[C@H]1CC[C@H](CCc2coc(CN3Cc4ccc(C(F)(F)F)cc4C3)cc2=O)CC1)C1CC(F)(F)C1 [Compound 95] | – | – | – | – | – | – | 50% | 66% | – | – | 57% | 81% | – | – | – |
| Cn1cc(C(=O)N[C@H]2CC[C@H](COc3coc(CN4Cc5ccc(C(F)(F)F)cc5C4)cc3=O)CC2)cn1 [Compound 35] | 24200 ng·h/mL | 2.85 h | 12500 ng·h/mL | 3.34 mL/min/kg | 2.68 h | 0.557 L/kg | – | – | 72.8% | 75.5% | – | – | 18300 ng·h/mL | 2.84 h | AUC(0-t) [4, 6]: 9100 ng·h/mL; clearance [4, 6]: 4.66 mL/min/kg; half-life [4, 6]: 2.71 h; Vd [4, 6]: 0.788 L/kg |
| [2H]C([2H])([2H])C(=O)N[C@H]1CC[C@H](COc2coc(CN3Cc4ccc(C(F)(F)F)cc4C3)cc2=O)CC1 [Compound 33] | 8430 ng·h/mL | 2.45 h | 2090 ng·h/mL | 19.9 mL/min/kg | 0.908 h | 1.19 L/kg | – | – | – | – | – | – | 19600 ng·h/mL | 2.04 h | IC50 [3]: 68 nM |
| [2H]C([2H])([2H])C(=O)N[C@H]1CC[C@H](/C=C/c2coc(CN3Cc4ccc(C(F)(F)F)cc4C3)cc2=O)CC1 [Compound 80] | – | – | – | – | – | – | 38.1% | 59.1% | – | – | 71% | 84% | – | – | IC50 [2]: 190 nM |
| O=c1cc(CN2Cc3ccc(C(F)(F)F)cc3C2)occ1/C=C/[C@H]1CC[C@H](NC(=O)[C@H]2C[C@@H](F)C2)CC1 [Compound 100] | – | – | – | – | – | – | – | – | 70% | 85% | – | – | 17500 ng·h/mL | 2.29 h | AUC(0-t) [4, 6]: 4660 ng·h/mL; clearance [4, 6]: 8.86 mL/min/kg; half-life [4, 6]: 1.8 h; Vd [4, 6]: 1.29 L/kg |
| O=C(N[C@H]1CC[C@H](COc2coc(CN3Cc4ccc(C(F)(F)F)cc4C3)cc2=O)CC1)C1CC1 [Compound 15] | 25400 ng·h/mL | 3.19 h | 6700 ng·h/mL | 6.21 mL/min/kg | 3.54 h | 1.61 L/kg | – | – | – | – | 51% | 84.2% | – | – | IC50 [2]: 382 nM; IC50 [3]: 13 nM |
| O=C(N[C@H]1CC[C@H](COc2coc(CN3Cc4ccc(C(F)(F)F)cc4C3)cc2=O)CC1)C1COC1 [Compound 63] | – | – | – | – | – | – | – | – | 64% | 75% | – | – | 19100 ng·h/mL | 2.18 h | – |
| Cc1nc(C(=O)N[C@H]2CC[C@H](/C=C/c3coc(CN4Cc5ccc(C(F)(F)F)cc5C4)cc3=O)CC2)co1 [Compound 84] | – | – | – | – | – | – | – | – | – | – | – | – | – | – | IC50 [2]: 121 nM |
| C=C1CC(C(=O)N[C@H]2CC[C@H](/C=C/c3coc(CN4Cc5ccc(C(F)(F)F)cc5C4)cc3=O)CC2)C1 [Compound 116] | – | – | – | – | – | – | 48% | 75% | – | – | 60% | 66% | – | – | – |
| CS(=O)(=O)N1CC(OC(=O)N[C@H]2CC[C@H](COc3coc(CN4Cc5ccc(C(F)(F)F)cc5C4)cc3=O)CC2)C1 [Compound 64] | – | – | – | – | – | – | – | – | 73% | 75% | – | – | 10100 ng·h/mL | 2.92 h | AUC(0-t) [4, 6]: 3440 ng·h/mL; clearance [4, 6]: 12.1 mL/min/kg; half-life [4, 6]: 2.65 h; Vd [4, 6]: 2.09 L/kg |
| O=C(N[C@H]1CC[C@@H](COc2coc(CN3Cc4ccc(C(F)(F)F)cc4C3)cc2=O)CC1)C1COC1 [Compound 54] | 28100 ng·h/mL | 2.97 h | 5870 ng·h/mL | 7.19 mL/min/kg | 2.98 h | 1.17 L/kg | – | – | 53.2% | 72.2% | – | – | – | – | – |
| COC1CN(CC(=O)N2CCC(/C=C/c3coc(CN4Cc5ccc(C(F)(F)F)cc5C4)cc3=O)CC2)C1 [Compound 18] | – | – | – | – | – | – | 40.7% | 50.5% | – | – | 80.8% | 92.5% | – | – | IC50 [3]: 100 nM |
| O=c1cc(CN2Cc3ccc(C(F)(F)F)cc3C2)occ1/C=C/[C@H]1CC[C@H](NC(=O)[C@H]2C[C@H](F)C2)CC1 [Compound 101] | – | – | – | – | – | – | – | – | 73% | 71% | – | – | 11600 ng·h/mL | 3.59 h | AUC(0-t) [4, 6]: 5640 ng·h/mL; clearance [4, 6]: 7.45 mL/min/kg; half-life [4, 6]: 2.96 h; Vd [4, 6]: 1.47 L/kg |
| O=C(OC1CC1)N1CCC(COc2coc(CN3Cc4ccc(OC5CC5)cc4C3)cc2=O)CC1 [Compound 27] | – | – | – | – | – | – | 65.5% | 67.5% | – | – | 78% | 68% | – | – | IC50 [3]: 50.1 nM |
